Experimental data taken from patent publication US20040039059A1, “Use of n,n' -dibenzyl ethylene diamine-n, n'- diacetic acid derivatives as anti-pollution agent” (priority 2000, published 2004).
pIC50: −log10 of the molar value.

Test system: human keratinocytes
Experiment: Neutral red incorporation test: cytotoxicity of cadmium chloride on human keratinocytes in culture, with or without protecting agent
Format: cell-based
Conditions: for protection of cells against the toxicity of cadmium chloride (in words): protecting agent at 50 and 100 μM
Method: The cytotoxic effect of cadmium on human keratinocytes in culture was evaluated by means of a technique of measuring the cell viability, known as the neutral red incorporation test (E. Borenfreund and J. A. Puerner, Tissue Culture Methods. 1984, 9: 7-9).
The study was performed on a monolayer culture of human keratinocytes obtained from plastic surgeries. The cells are inoculated on D-3 into 96-well culture dishes at a rate of 25 000 cells/cm^2 in 100 μl of culture medium (calf serum-free defined medium, NR2, Biofluids). The incubations are performed in an incubator at 37° C. under a humid atmosphere enriched with 5% CO2.
The cells are treated for 24 hours with increasing concentrations (0, 10, 25, 50, 75, 100, 150 and 200 μM) of cadmium chloride (CdCl2) alone, so as to determine its cytotoxicity. In parallel, a treatment is performed under the same conditions, but in the presence of N,N′-bis(3,4,5-trimethoxybenzyl)ethylenediamine-N,N′-diacetic acid (100 and 50 μm). The incubations are performed in an incubator at 37° C., [lacuna] % CO2 under a humid atmosphere.
At the end of the period of contact, a neutral red incorporation test is performed and the results are read on a spectrophotometer at 550 nm.
To do this, the cells are rinsed with PBS buffer in order to remove the treatment solutions; 100 μl per well of a 0.5 mg/ml neutral red solution are added to the culture medium; the mixture is incubated at 37° C. and 5% CO2, under a humid atmosphere, for three hours; the resulting mixture is rinsed with PBS; fixing is performed with formaldehyde/calcium solution for one minute; the neutral red is extracted with 100 μl/well of ethanol-acetic acid solution; the optical density is read on the spectrophotometer at 550 nm and the CdCl2 concentration, resulting in a 50% reduction in viability=IC-50, is calculated.

| Structure (SMILES) | protection of cells against the toxicity of cadmium chloride (in words) (human keratinocytes) | protection of cells against the toxicity of cadmium chloride (in words) (human keratinocytes, listed as N,N′-dimethylethylenediamine-N,N′-diacetic acid) | factor by which the cytotoxicity of cadmium chloride decreases (protecting agent at 50 μM) | factor by which the cytotoxicity of cadmium chloride decreases (protecting agent at 100 μM) | pIC50 (CdCl2 alone, 24 hours, human keratinocytes, neutral red, concentration giving 50% drop in cell viability, read-out: IC.50 of cadmium chloride without protecting agent (Mean ± SEM)) |
| --- | --- | --- | --- | --- | --- |
| COc1cc(CN(CCN(CC(=O)O)Cc2cc(OC)c(OC)c(OC)c2)CC(=O)O)cc(OC)c1OC [N,N′-bis(3,4,5-trimethoxybenzyl)ethylenediamine-N,N′-diacetic acid] | significantly protects the cells against the toxicity of this pollutant | cytotoxicity of cadmium chloride decreases significantly | 2.3 | 3.1 | – |
| [Cl][Cd][Cl] [cadmium chloride, reference compound] | – | – | – | – | 4.41 |
